Results taken from PubChem BioAssay (NCI).
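The compound was tested at five concentrations on cells cultured in 96-well plates, with a 48-hour exposure period. TGI denotes the concentration required for complete inhibition of growth.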

Tests used:
Experiment in all cases: NCI tumour cell line growth inhibition, 48 h
[1] = tested on: XF 498 CNS
[2] = tested on: ACHN renal
[3] = tested on: HCT-15 colon
[4] = tested on: TK-10 renal
[5] = tested on: OVCAR-8 ovarian
[6] = tested on: NCI-H460 lung
[7] = tested on: LOX IMVI melanoma
[8] = tested on: SF-539 CNS
[9] = tested on: K-562 leukemia
[10] = tested on: UACC-62 melanoma
[11] = tested on: MOLT-4 leukemia
[12] = tested on: NCI-H226 lung
[13] = tested on: SK-MEL-2 melanoma
[14] = tested on: M19-MEL melanoma
[15] = tested on: SNB-75 CNS
[16] = tested on: HT29 colon
[17] = tested on: 786-0 renal
[18] = tested on: DMS 273 small cell lung
[19] = tested on: HCC-2998 colon
[20] = tested on: SK-MEL-5 melanoma
[21] = tested on: HOP-62 NSCLC
[22] = tested on: RXF 393 renal
[23] = tested on: IGROV1 ovarian
[24] = tested on: U251 CNS
[25] = tested on: SW-620 colon
[26] = tested on: NCI-H23 lung
[27] = tested on: OVCAR-3 ovarian
[28] = tested on: OVCAR-5 ovarian
[29] = tested on: CCRF-CEM leukemia
[30] = tested on: SK-OV-3 ovarian
[31] = tested on: A498 renal
[32] = tested on: SN12C renal
[33] = tested on: LXFL 529 NSCLC
[34] = tested on: HL-60(TB) leukemia
[35] = tested on: KM12 colon
[36] = tested on: HCT-116 colon
[37] = tested on: SK-MEL-28 melanoma
[38] = tested on: UO-31 renal
[39] = tested on: M14 melanoma
[40] = tested on: OVCAR-4 ovarian
[41] = tested on: SNB-78 CNS
[42] = tested on: A549 NSCLC
[43] = tested on: KM20L2 colon
[44] = tested on: EKVX NSCLC
[45] = tested on: HOP-92 NSCLC
[46] = tested on: DLD-1 colon
[47] = tested on: RXF-631 renal
[48] = tested on: SF-268 CNS
[49] = tested on: NCI-H522 lung
[50] = tested on: SF-295 CNS
[51] = tested on: SNB-19 CNS
[52] = tested on: COLO 205 colon
[53] = tested on: HOP-18 NSCLC
[54] = tested on: RPMI-8226 leukemia
[55] = tested on: DMS 114 small cell lung
[56] = tested on: UACC-257 melanoma
[57] = tested on: MALME-3M melanoma
[58] = tested on: CAKI-1 renal
[59] = tested on: SR leukemia

Measured: TGI

C=C(COC(C)=O)CC(/C=C(\C)CC/C=C(\C)CO)OC(C)=O (configuration not stated)
not listed: [53] | [54] | [55] | [56] | [57] | [58] | [59]
> 100 µM: all other assays above

NC(CO)c1ccc(OCc2ccccc2)cc1 (configuration not stated)
81.5 µM: [59]
98.1 µM: [45]
98.9 µM: [15]
> 91.4 µM: [58]
not listed: [47]
> 100 µM: all other assays above

O=C(Nc1ccccc1)c1cccc([N+](=O)[O-])c1
not listed: [4] | [6] | [7] | [12] | [13] | [22] | [26] | [28] | [30] | [33] | [34] | [35] | [38] | [39] | [40] | [46] | [47] | [49] | [50] | [56] | [59]
> 100 µM: all other assays above

O=C(Cc1ccccc1)N/N=C(/c1nc2ccc([N+](=O)[O-])cc2[nH]c1=O)C(O)c1ccccc1Cl (configuration not stated)
not listed: [18] | [22] | [27] | [43] | [47] | [51] | [55]
> 100 µM: all other assays above

CN(C)c1ccc(/C=c2\sc3nnc(-c4cccnc4)n3c2=O)cc1
not listed: [16] | [47] | [59]
> 100 µM: all other assays above

N#Cc1c(-c2ccccc2)cc(-c2cccs2)c(C#N)c1N
0.0879 µM: [53]
55.2 µM: [15]
not listed: [10] | [12] | [13] | [14] | [22] | [23] | [26] | [28] | [30] | [37] | [38] | [47] | [52] | [55] | [59]
> 100 µM: all other assays above

CCCCCCCCCC/C=C/C=O
not listed: [12] | [17] | [21] | [40] | [47] | [54] | [58]
> 100 µM: all other assays above

OCCCc1cnco1
not listed: [13] | [47] | [49] | [55]
> 100 µM: all other assays above
